“Also recorded” adds a separate entry of the source. Where two headings read alike, the source gives them in different places.
Legend:
5-HT5a = 5-HT5a (Homo sapiens, UniProt P47898); assay: Competitive radioligand binding (NIMH PDSP)
5-HT7 = 5-HT7 (Homo sapiens, UniProt P34969); assay: Competitive radioligand binding (NIMH PDSP)
5-HT6 = 5-HT6 (Homo sapiens, UniProt P50406); assay: Competitive radioligand binding (NIMH PDSP)
5-HT2B = 5-HT2B (Homo sapiens, UniProt P41595); assay: BRET Gq dissociation, 5-HT2B; format: cell-based; set-up: expressed in transfected cells; host or cells: HEK293T, transient; settings: for Emax: read-out: 5-HT2B Gq Dissociation (BRET) EMAX ± SEM (%5-HT)
5-HT2A = 5-HT2A (Homo sapiens, UniProt P28223); assay: cell-based; set-up: expressed in transfected cells; host or cells: HEK293T, transient; settings: read-out: 5-HT2A Gq Emax (% 5-HT), BRET, mean ± SEM
5-HT2C = target: T1, 5-HT2C (Homo sapiens, UniProt P28335); assay: BRET Gq dissociation, 5-HT2C; format: cell-based; set-up: expressed in transfected cells; host or cells: HEK293T, transient; settings: for Emax: read-out: 5-HT2C Gq Dissociation (BRET) EMAX ± SEM (%5-HT)
T1 sequence (P28335 33-458): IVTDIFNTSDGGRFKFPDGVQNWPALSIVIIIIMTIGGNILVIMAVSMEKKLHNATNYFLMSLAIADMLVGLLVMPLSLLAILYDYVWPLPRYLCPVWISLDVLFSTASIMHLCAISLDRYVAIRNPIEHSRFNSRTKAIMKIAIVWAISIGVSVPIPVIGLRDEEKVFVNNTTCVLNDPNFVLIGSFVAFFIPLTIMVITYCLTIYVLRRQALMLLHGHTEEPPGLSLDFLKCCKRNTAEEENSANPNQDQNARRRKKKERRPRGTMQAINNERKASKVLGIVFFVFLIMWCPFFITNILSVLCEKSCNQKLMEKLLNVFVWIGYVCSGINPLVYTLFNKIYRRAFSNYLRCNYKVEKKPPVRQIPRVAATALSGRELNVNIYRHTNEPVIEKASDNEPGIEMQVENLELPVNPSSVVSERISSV

male C57BL/6J mice = assay: Head-twitch response (HTR) in mice; format: in vivo, mouse; settings: for ED50: Mus musculus
Summary of the method: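 Head twitches in male C57BL/6J mice (6-8 weeks) carrying head-mounted magnets were detected with a magnetometer coil around a 12-cm glass cylinder during the dark phase. Coil signal was low-pass filtered at 2 kHz and digitized at 20 kHz. Counts were analyzed by one-way ANOVA with Dunnett's post hoc test.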

[1] = read-out: HTR ED50 mg/kg (95% CI), SC, except DOI and 25D-NBOMe IP

Sequence of 5-HT7 (P34969 whole entry, species assumed): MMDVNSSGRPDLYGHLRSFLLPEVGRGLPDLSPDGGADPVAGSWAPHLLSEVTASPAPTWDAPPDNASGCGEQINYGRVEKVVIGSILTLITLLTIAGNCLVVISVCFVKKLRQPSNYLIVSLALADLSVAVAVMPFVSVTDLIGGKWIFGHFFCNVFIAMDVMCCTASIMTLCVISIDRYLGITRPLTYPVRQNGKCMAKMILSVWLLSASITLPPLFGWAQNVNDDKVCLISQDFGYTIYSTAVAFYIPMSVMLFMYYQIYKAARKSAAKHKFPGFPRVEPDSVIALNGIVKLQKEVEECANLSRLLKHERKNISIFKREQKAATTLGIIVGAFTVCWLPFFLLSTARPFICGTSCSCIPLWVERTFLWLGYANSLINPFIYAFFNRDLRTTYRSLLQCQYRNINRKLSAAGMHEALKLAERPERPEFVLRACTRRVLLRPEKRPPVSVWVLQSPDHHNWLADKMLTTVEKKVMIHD
Sequence of 5-HT6 (P50406 whole entry, species assumed): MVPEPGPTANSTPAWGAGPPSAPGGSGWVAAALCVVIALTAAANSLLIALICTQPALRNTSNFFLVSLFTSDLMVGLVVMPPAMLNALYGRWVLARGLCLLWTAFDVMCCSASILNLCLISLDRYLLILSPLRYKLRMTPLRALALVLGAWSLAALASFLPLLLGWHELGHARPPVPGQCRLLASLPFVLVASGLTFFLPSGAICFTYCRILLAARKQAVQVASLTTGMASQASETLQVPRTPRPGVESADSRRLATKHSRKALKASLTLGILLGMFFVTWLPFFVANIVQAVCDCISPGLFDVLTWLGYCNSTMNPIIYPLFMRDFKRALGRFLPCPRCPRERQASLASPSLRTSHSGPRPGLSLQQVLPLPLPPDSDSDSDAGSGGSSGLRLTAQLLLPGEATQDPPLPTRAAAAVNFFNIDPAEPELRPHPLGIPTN
Sequence of 5-HT2A (P28223 whole entry): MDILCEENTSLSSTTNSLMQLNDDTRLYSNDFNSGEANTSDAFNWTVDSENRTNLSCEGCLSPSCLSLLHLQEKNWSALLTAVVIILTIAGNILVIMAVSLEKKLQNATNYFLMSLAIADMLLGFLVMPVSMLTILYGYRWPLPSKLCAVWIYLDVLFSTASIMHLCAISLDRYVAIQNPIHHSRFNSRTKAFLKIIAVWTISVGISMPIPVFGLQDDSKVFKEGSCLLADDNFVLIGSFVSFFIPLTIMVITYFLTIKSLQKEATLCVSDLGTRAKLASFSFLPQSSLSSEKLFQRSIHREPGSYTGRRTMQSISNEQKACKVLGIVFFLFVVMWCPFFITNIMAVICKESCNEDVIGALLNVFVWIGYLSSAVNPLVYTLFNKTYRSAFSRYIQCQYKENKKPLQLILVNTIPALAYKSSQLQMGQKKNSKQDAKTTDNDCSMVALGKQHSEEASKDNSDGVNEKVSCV
Sequence of 5-HT2B (P41595 whole entry): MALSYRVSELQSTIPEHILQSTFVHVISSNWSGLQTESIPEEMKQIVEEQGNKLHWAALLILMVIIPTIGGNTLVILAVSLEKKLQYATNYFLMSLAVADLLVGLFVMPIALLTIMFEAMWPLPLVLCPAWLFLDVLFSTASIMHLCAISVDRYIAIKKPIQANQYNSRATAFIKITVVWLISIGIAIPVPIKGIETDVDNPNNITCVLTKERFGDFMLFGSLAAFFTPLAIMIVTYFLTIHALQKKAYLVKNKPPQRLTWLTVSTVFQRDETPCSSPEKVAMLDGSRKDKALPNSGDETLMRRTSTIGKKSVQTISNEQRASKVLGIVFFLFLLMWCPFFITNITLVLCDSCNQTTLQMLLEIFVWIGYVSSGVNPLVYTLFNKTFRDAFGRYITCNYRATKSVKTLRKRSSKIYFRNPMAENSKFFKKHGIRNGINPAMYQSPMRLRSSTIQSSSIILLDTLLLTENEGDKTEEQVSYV
Sequence of 5-HT5a (P47898 whole entry, species assumed): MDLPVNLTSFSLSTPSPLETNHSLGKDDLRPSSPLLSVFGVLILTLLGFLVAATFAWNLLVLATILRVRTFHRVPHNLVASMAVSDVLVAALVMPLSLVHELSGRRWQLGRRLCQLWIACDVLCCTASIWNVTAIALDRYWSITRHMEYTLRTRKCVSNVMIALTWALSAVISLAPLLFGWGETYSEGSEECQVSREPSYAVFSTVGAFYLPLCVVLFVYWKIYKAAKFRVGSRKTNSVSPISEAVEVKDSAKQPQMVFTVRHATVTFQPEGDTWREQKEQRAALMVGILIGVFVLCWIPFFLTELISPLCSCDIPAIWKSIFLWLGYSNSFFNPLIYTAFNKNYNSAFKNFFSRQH

Row | Compound | Ki (5-HT5a) | Ki (5-HT7) | Ki (5-HT6) | EC50 (5-HT2B) | Emax (5-HT2B) | Emax (5-HT2A) | EC50 (5-HT2C) | Emax (5-HT2C) | Induction of the HTR in mice (in words) (male C57BL/6J mice) | Max HTR response during a 30-min assessment (maximum counts ÷ baseline response) (male C57BL/6J mice) | ED50 (male C57BL/6J mice; [1]) | 5-HT2B Gq Dissociation (BRET) EMAX ± SEM (%5-HT) (5-HT2B) | 5-HT2B Gq Dissociation (BRET) pEC50 ± SEM (5-HT2B) | ED50 (male C57BL/6J mice; read-out: HTR ED50 μmol/kg (95% CI), SC, except DOI and 25D-NBOMe IP)
1 | COc1cc([N+](=O)[O-])c(OC)cc1CCN [2C-N (1), 2-(2,5-dimethoxy-4-nitrophenyl)ethan-1-amine, reference compound] | > 10000 nM | > 10000 nM | 251 nM | 74.1 nM | 87.7 ± 2.8% | 87.9 ± 1.4% | 12.6 nM | 78.4 ± 2.5% | – | – | – | – | – | –
2 | COc1cc([N+](=O)[O-])c(OC)cc1CCNCc1cccc2ccccc12 [25N-N-1-Nap (16), [2-(2,5-dimethoxy-4-nitrophenyl)ethyl][(naphthalen-1-yl)methyl]amine] | 1100 nM | 186 nM | 79.4 nM | – | – | 23.7 ± 1.4% | 18.6 nM | 34.1 ± 4.4% | failed to induce the HTR | 1.2-fold increase | > 30 mg/kg | No activity | No activity | –
3 | COc1cc([N+](=O)[O-])c(OC)cc1CCNCc1ccccc1 [25N-NB (2), Benzyl[2-(2,5-dimethoxy-4-nitrophenyl)ethyl]amine] | – | – | – | 38 nM | 32.6 ± 2.3% | 79.5 ± 1.5% | 8.51 nM | 89.4 ± 2.3% | – | 9.1-fold increase | 1.25 mg/kg | – | – | 3.53 µmol/kg
4 | COc1cc([N+](=O)[O-])c(OC)cc1CCNCc1cccc(F)c1OC [25N-NB-2-MeO-3-F (19), [2-(2,5-dimethoxy-4-nitrophenyl)ethyl][(3-fluoro-2-methoxyphenyl)methyl]amine] | 2880 nM | > 10000 nM | > 10000 nM | – | – | 71.1 ± 1.9% | – | – | – | – | – | – | – | –
5 | COc1cc([N+](=O)[O-])c(OC)cc1CCNCc1cccc(C)c1O [25N-NB-2-OH-3-Me (18), 2-({[2-(2,5-dimethoxy-4-nitrophenyl)ethyl]amino}methyl)-6-methylphenol] | 501 nM | 871 nM | 209 nM | – | – | 50.8 ± 1.6% | 2.14 nM | 45.8 ± 2.4% | failed to induce the HTR; also recorded: do not induce the HTR | 1.0-fold increase | > 10 mg/kg | No activity | No activity | –
6 | COc1cc([N+](=O)[O-])c(OC)cc1CCNCc1cccc(C)c1 [25N-NB-3-Me (22), [2-(2,5-dimethoxy-4-nitrophenyl)ethyl][(3-methylphenyl)methyl]amine] | – | – | – | – | – | 41.7 ± 3.4% | – | – | – | – | – | – | – | –
